From patent US5843966A, “Piperidine derivatives” (Glaxo Group Limited, priority 1993, dated 1998)
Structures can show the parent of a compound that is named as a salt.

Test system: radiation-induced emesis in the ferret
Test: Inhibition of radiation-induced emesis in the ferret
Type: in vivo
Details: compound administered 1.5 hours prior to irradiation
Protocol: In this model of emesis the onset of retching and vomiting occurs approximately 20 minutes after whole body irradiation (2 Grey.ident.200 Rads). The test compound is administered (e.g. i.p, p.o., i.v., s.c) immediately after irradiation and its effect on emesis determined by comparison with appropriate controls.
Alternatively, the test compounds may be administered before irradiation or before treatment with an emetogen, for example 1.5, 3 or 6 hours before irradiation.

Structure (SMILES) | inhibition of radiation-induced emesis (0.03 mg/kg s.c.) | inhibition of radiation-induced emesis (0.1 mg/kg s.c.)
COc1ccc(-n2nnnc2C(F)(F)F)cc1CN[C@H]1CCCN[C@H]1c1ccccc1 [Example 7, [2-Methoxy-5-(5-trifluoromethyl-tetrazol-1-yl)-benzyl]-(2S,3S]-2-phenyl-piperidin-3-yl)-amine dihydrochloride] | inhibited radiation-induced emesis | 
COc1ccc(-n2cnnn2)cc1CN[C@H]1CCCN[C@H]1c1ccccc1 [Example 2] |  | inhibited radiation-induced emesis
